pIC50: −log10 of the molar value.
System: K24384-001-R-PDC complex spheroids, viability
Assay: Anticancer human tumor K24384-001-R-PDC patient-derived pancreatic adenocarcinoma cell line growth inhibition [GQUAD]
Settings: for pIC50: curve of first compound; for viability, T/C: stronger effect = lower value
In short: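 Tumor cells were grown as complex spheroids with HUVEC endothelial cells and mesenchymal stem cells as stroma. G-quadruplex stabilizers were combined with targeted agents over half-log dilutions from near the clinical Cmax, or from 10 microM.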

[1] = second compound 0.0316 µM, first compound 0.0316 µM
[2] = second compound 0.0316 µM, first compound 0.316 µM
[3] = second compound 0.1 µM, first compound 0.0316 µM
[4] = second compound 0.1 µM, first compound 0.316 µM
[5] = second compound 0.316 µM, first compound 0.0316 µM
[6] = second compound 0.316 µM, first compound 0.316 µM
[7] = second compound 1 µM, first compound 0.0316 µM
[8] = second compound 1 µM, first compound 0.316 µM
[9] = second compound 3.16 µM, first compound 0.0316 µM
[10] = second compound 3.16 µM, first compound 0.316 µM
[11] = second compound 10 µM, first compound 0.0316 µM
[12] = second compound 10 µM, first compound 0.316 µM
[13] = second compound 0.0316 µM, first compound 0.1 µM
[14] = second compound 0.0316 µM, first compound 1 µM
[15] = second compound 0.0316 µM, first compound 3.16 µM
[16] = second compound 0.0316 µM, first compound 10 µM
[17] = second compound 0.1 µM, first compound 0.1 µM
[18] = second compound 0.1 µM, first compound 1 µM
[19] = second compound 0.1 µM, first compound 3.16 µM
[20] = second compound 0.1 µM, first compound 10 µM
[21] = second compound 0.316 µM, first compound 0.1 µM
[22] = second compound 0.316 µM, first compound 1 µM
[23] = second compound 0.316 µM, first compound 3.16 µM
[24] = second compound 0.316 µM, first compound 10 µM
[25] = second compound 1 µM, first compound 0.1 µM
[26] = second compound 1 µM, first compound 1 µM
[27] = second compound 1 µM, first compound 3.16 µM
[28] = second compound 1 µM, first compound 10 µM
[29] = second compound 3.16 µM, first compound 0.1 µM
[30] = second compound 3.16 µM, first compound 1 µM
[31] = second compound 3.16 µM, first compound 3.16 µM
[32] = second compound 3.16 µM, first compound 10 µM
[33] = second compound 10 µM, first compound 0.1 µM
[34] = second compound 10 µM, first compound 1 µM
[35] = second compound 10 µM, first compound 3.16 µM
[36] = second compound 10 µM, first compound 10 µM
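Further: spheroids exposed to compounds for seven days.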

## CCc1c2c(nc3ccc(O)cc13)-c1cc3c(c(=O)n1C2)COC(=O)[C@]3(O)CC + Cc1cnc(CNC(=O)c2c(=O)c3ccc(N4CCCN(C)CC4)nc3n3c2sc2ccccc23)cn1
Second compound 0.0316 µM
  pIC50: 8.03
Second compound 0.1 µM
  pIC50: 8.08
Second compound 0.316 µM
  pIC50: > 9.00
Second compound 1 µM
  pIC50: > 9.00
Second compound 3.16 µM
  pIC50: > 9.00
Second compound 10 µM
  pIC50: > 9.00
Second compound 0.0316 µM, first compound 0.000999 µM
  viability, T/C: 73.2%
Second compound 0.0316 µM, first compound 0.00316 µM
  viability, T/C: 60.8%
Second compound 0.0316 µM, first compound 0.00999 µM
  viability, T/C: 53.2%
[1]
  viability, T/C: 29.8%
Second compound 0.0316 µM, first compound 0.0999 µM
  viability, T/C: 31.9%
[2]
  viability, T/C: 18%
Second compound 0.1 µM, first compound 0.000999 µM
  viability, T/C: 50%
Second compound 0.1 µM, first compound 0.00316 µM
  viability, T/C: 64.9%
Second compound 0.1 µM, first compound 0.00999 µM
  viability, T/C: 45.7%
[3]
  viability, T/C: 36.7%
Second compound 0.1 µM, first compound 0.0999 µM
  viability, T/C: 29.3%
[4]
  viability, T/C: 16.1%
Second compound 0.316 µM, first compound 0.000999 µM
  viability, T/C: 41.4%
Second compound 0.316 µM, first compound 0.00316 µM
  viability, T/C: 58.4%
Second compound 0.316 µM, first compound 0.00999 µM
  viability, T/C: 38.2%
[5]
  viability, T/C: 34.8%
Second compound 0.316 µM, first compound 0.0999 µM
  viability, T/C: 19.9%
[6]
  viability, T/C: 14%
Second compound 1 µM, first compound 0.000999 µM
  viability, T/C: 38.8%
Second compound 1 µM, first compound 0.00316 µM
  viability, T/C: 41.4%
Second compound 1 µM, first compound 0.00999 µM
  viability, T/C: 31.3%
[7]
  viability, T/C: 23.8%
Second compound 1 µM, first compound 0.0999 µM
  viability, T/C: 18.4%
[8]
  viability, T/C: 6.84%
Second compound 3.16 µM, first compound 0.000999 µM
  viability, T/C: 37.4%
Second compound 3.16 µM, first compound 0.00316 µM
  viability, T/C: 43.7%
Second compound 3.16 µM, first compound 0.00999 µM
  viability, T/C: 28.8%
[9]
  viability, T/C: 20.1%
Second compound 3.16 µM, first compound 0.0999 µM
  viability, T/C: 8.56%
[10]
  viability, T/C: 0.57%
Second compound 10 µM, first compound 0.000999 µM
  viability, T/C: 29.2%
Second compound 10 µM, first compound 0.00316 µM
  viability, T/C: 14.6%
Second compound 10 µM, first compound 0.00999 µM
  viability, T/C: 13.3%
[11]
  viability, T/C: 0.4%
Second compound 10 µM, first compound 0.0999 µM
  viability, T/C: 0.25%
[12]
  viability, T/C: 0.2%

## CC(C)(O)C1CCC(Nc2ccc3ncc(-c4cccc(C(F)(F)F)c4)n3n2)CC1 (stereo unspecified) + Cc1[nH]c2ccc(F)cc2c1-c1nc2c3cccnc3c3ncccc3c2[nH]1
Second compound 0.0316 µM
  pIC50: 5.79
Second compound 0.1 µM
  pIC50: 5.69
Second compound 0.316 µM
  pIC50: 5.71
Second compound 1 µM
  pIC50: 5.77
Second compound 3.16 µM
  pIC50: 6.35
Second compound 10 µM
  pIC50: 6.26
[1]
  viability, T/C: 95.6%
[13]
  viability, T/C: 104%
[2]
  viability, T/C: 111%
[14]
  viability, T/C: 59.3%
[15]
  viability, T/C: 28.3%
[16]
  viability, T/C: 46.5%
[3]
  viability, T/C: 75.3%
[17]
  viability, T/C: 105%
[4]
  viability, T/C: 90.4%
[18]
  viability, T/C: 68.1%
[19]
  viability, T/C: 39.8%
[20]
  viability, T/C: 33.2%
[5]
  viability, T/C: 103%
[21]
  viability, T/C: 97.9%
[6]
  viability, T/C: 108%
[22]
  viability, T/C: 73.4%
[23]
  viability, T/C: 28.5%
[24]
  viability, T/C: 36.6%
[7]
  viability, T/C: 76.7%
[25]
  viability, T/C: 99%
[8]
  viability, T/C: 106%
[26]
  viability, T/C: 68.8%
[27]
  viability, T/C: 26.2%
[28]
  viability, T/C: 30.9%
[9]
  viability, T/C: 64.6%
[29]
  viability, T/C: 70.4%
[10]
  viability, T/C: 56.2%
[30]
  viability, T/C: 32.8%
[31]
  viability, T/C: 15.4%
[32]
  viability, T/C: 13.8%
[11]
  viability, T/C: 70.1%
[33]
  viability, T/C: 85.7%
[12]
  viability, T/C: 57.3%
[34]
  viability, T/C: 39.4%
[35]
  viability, T/C: 12.7%
[36]
  viability, T/C: 14%

## O=C(c1cc(Cc2n[nH]c(=O)c3ccccc23)ccc1F)N1CCN(C(=O)C2CC2)CC1 + Cc1[nH]c2ccc(F)cc2c1-c1nc2c3cccnc3c3ncccc3c2[nH]1
Second compound 0.0316 µM
  pIC50: < 5.00
Second compound 0.1 µM
  pIC50: < 5.00
Second compound 0.316 µM
  pIC50: < 5.00
Second compound 1 µM
  pIC50: < 5.00
Second compound 3.16 µM
  pIC50: < 5.00
Second compound 10 µM
  pIC50: < 5.00
[1]
  viability, T/C: 101%
[13]
  viability, T/C: 94%
[2]
  viability, T/C: 99.6%
[14]
  viability, T/C: 94.3%
[15]
  viability, T/C: 84.4%
[16]
  viability, T/C: 93.1%
[3]
  viability, T/C: 103%
[17]
  viability, T/C: 104%
[4]
  viability, T/C: 147%
[18]
  viability, T/C: 98.7%
[19]
  viability, T/C: 89.8%
[20]
  viability, T/C: 83.9%
[5]
  viability, T/C: 96.8%
[21]
  viability, T/C: 97.4%
[6]
  viability, T/C: 95.7%
[22]
  viability, T/C: 85.7%
[23]
  viability, T/C: 82.3%
[24]
  viability, T/C: 91.1%
[7]
  viability, T/C: 78.1%
[25]
  viability, T/C: 88%
[8]
  viability, T/C: 90.5%
[26]
  viability, T/C: 87.5%
[27]
  viability, T/C: 89%
[28]
  viability, T/C: 69.7%
[9]
  viability, T/C: 82.9%
[29]
  viability, T/C: 78.1%
[10]
  viability, T/C: 64.3%
[30]
  viability, T/C: 77.9%
[31]
  viability, T/C: 82%
[32]
  viability, T/C: 67.3%
[11]
  viability, T/C: 69.7%
[33]
  viability, T/C: 70.7%
[12]
  viability, T/C: 62.5%
[34]
  viability, T/C: 69%
[35]
  viability, T/C: 74.5%
[36]
  viability, T/C: 56.1%
